Measurements reported in PubChem BioAssay AID1745844 (Carcinogenic Potency Database (CPDB), 2022).
Values joined by “and” are separate entries in the source; they are usually repeats but may differ in a detail not shown here. Equal entries are not always repeated. Active and inactive are the calls of the source. The rule behind the calls is not given here.

System: rodent lifetime carcinogenesis bioassay, tumor incidence TD50
Assay: chronic cancer bioassays in animals – CPDB, compiled studies (AID 1745844)

C=Cc1ccccc1
TD50 (mouse, strain B6C3F1, females, by gavage, site: any site (literature study), lesion: several types, types named in the paper, dosed 78 weeks, study length 91 weeks): 625 mg/kg/day
TD50 (mouse, strain B6C3F1, females, by gavage, site: liver, lesion: hepatocellular adenoma + hepatocellular carcinoma + neoplastic nodule, dosed 78 weeks, study length 91 weeks): 905 mg/kg/day
TD50 (mouse, strain B6C3F1, females, by gavage, site: liver, lesion: hepatocellular adenoma, dosed 78 weeks, study length 91 weeks): 905 mg/kg/day (inactive)
TD50 (mouse, strain B6C3F1, females, by gavage, site: lung, lesion: alveolar/bronchiolar adenoma + alveolar/bronchiolar carcinoma, dosed 78 weeks, study length 91 weeks): 1380 mg/kg/day
TD50 (mouse, strain B6C3F1, males, by gavage, site: any site (literature study), lesion: several types, types named in the paper, dosed 78 weeks, study length 91 weeks): 659 mg/kg/day
TD50 (mouse, strain B6C3F1, males, by gavage, site: liver, lesion: hepatocellular adenoma + hepatocellular carcinoma + neoplastic nodule, dosed 78 weeks, study length 91 weeks): 895 mg/kg/day
TD50 (mouse, strain B6C3F1, males, by gavage, site: lung, lesion: alveolar/bronchiolar adenoma + alveolar/bronchiolar carcinoma, dosed 78 weeks, study length 91 weeks): 360 mg/kg/day
TD50 (mouse, strain Charles River CD1, females, inhaled, site: any site (literature study), lesion: several types, types named in the paper, dosed 98 weeks, study length 98 weeks): 400 mg/kg/day
TD50 (mouse, strain Charles River CD1, females, inhaled, site: liver, lesion: several types, types named in the paper, dosed 98 weeks, study length 98 weeks): 13600 mg/kg/day
TD50 (mouse, strain Charles River CD1, females, inhaled, site: lung, lesion: alveolar/bronchiolar adenoma, dosed 98 weeks, study length 98 weeks): 331 mg/kg/day
TD50 (mouse, strain Charles River CD1, females, inhaled, site: lung, lesion: alveolar/bronchiolar carcinoma, dosed 98 weeks, study length 98 weeks): 1300 mg/kg/day
TD50 (mouse, strain Charles River CD1, males, inhaled, site: any site (literature study), lesion: several types, types named in the paper, dosed 104 weeks, study length 105 weeks): 209 mg/kg/day
TD50 (mouse, strain Charles River CD1, males, inhaled, site: liver, lesion: hepatocellular carcinoma, dosed 104 weeks, study length 105 weeks): 2860 mg/kg/day
TD50 (mouse, strain Charles River CD1, males, inhaled, site: lung, lesion: alveolar/bronchiolar adenoma, dosed 78 weeks, study length 78 weeks): 465 mg/kg/day
TD50 (mouse, strain Charles River CD1, males, inhaled, site: lung, lesion: alveolar/bronchiolar adenoma, dosed 104 weeks, study length 105 weeks): 154 mg/kg/day
TD50 (mouse, strain Charles River CD1, males, inhaled, site: lung, lesion: alveolar/bronchiolar carcinoma, dosed 104 weeks, study length 105 weeks): 1770 mg/kg/day
TD50 (rat, strain Charles River CD (Sprague-Dawley), females, inhaled, site: liver, lesion: hepatocellular adenoma, dosed 104 weeks, study length 106 weeks): 12200 mg/kg/day (inactive)
carcinogen call (rat, strain Charles River CD (Sprague-Dawley), females, inhaled, site: liver, lesion: one or several types, types not named, dosed 52 weeks, study length 52 weeks): negative (inactive)
carcinogen call (rat, strain Charles River CD (Sprague-Dawley), males, inhaled, site: liver, lesion: one or several types, types not named, dosed 52 weeks, study length 52 weeks): negative (inactive)
TD50 (rat, strain Charles River CD (Sprague-Dawley), males, inhaled, site: liver, lesion: several types, types named in the paper, dosed 104 weeks, study length 106 weeks): 9930 mg/kg/day (inactive)
carcinogen call (rat, strain Fischer 344, females, by gavage, site: any site (literature study), lesion: several types, types named in the paper, dosed 90 weeks, study length 97 weeks): negative (inactive)
TD50 (rat, strain Fischer 344, females, by gavage, site: liver, lesion: hepatocellular adenoma + hepatocellular carcinoma + neoplastic nodule, dosed 90 weeks, study length 97 weeks): 25200 mg/kg/day
TD50 (rat, strain Fischer 344, males, by gavage, site: any site (literature study), lesion: several types, types named in the paper, dosed 90 weeks, study length 97 weeks): 3410 mg/kg/day (inactive)
TD50 (rat, strain Sprague-Dawley, females, by gavage, site: any site (literature study), lesion: several types, types named in the paper, dosed 52 weeks, study length 104 weeks): 12 mg/kg/day
TD50 (rat, strain Sprague-Dawley, females, inhaled, site: any site (literature study), lesion: malignant tumor, dosed 52 weeks, study length 104 weeks): 205 mg/kg/day
TD50 (rat, strain Sprague-Dawley, females, inhaled, site: any site (literature study), lesion: several types, types named in the paper, dosed 52 weeks, study length 104 weeks): 48.7 mg/kg/day
TD50 (rat, strain Sprague-Dawley, females, inhaled, site: mammary tissue, wider than the gland, lesion: malignant tumor, dosed 52 weeks, study length 104 weeks): 57.1 mg/kg/day
TD50 (rat, strain Sprague-Dawley, females, inhaled, site: mammary tissue, wider than the gland, lesion: several types, types named in the paper, dosed 52 weeks, study length 104 weeks): 23.3 mg/kg/day
TD50 (rat, strain Sprague-Dawley, males, by gavage, site: any site (literature study), lesion: malignant tumor, dosed 52 weeks, study length 104 weeks): 1090 mg/kg/day
TD50 (rat, strain Sprague-Dawley, males, by gavage, site: any site (literature study), lesion: several types, types named in the paper, dosed 52 weeks, study length 104 weeks): 1220 mg/kg/day
TD50 (rat, strain Sprague-Dawley, males, inhaled, site: any site (literature study), lesion: several types, types named in the paper, dosed 52 weeks, study length 104 weeks): 107 mg/kg/day

CCCN(N=O)C(N)=O
carcinogen call (rat, strain F344/DuCrj, females, in drinking water, site: thymus gland, lesion: lymphoma, dosed 70 weeks, study length 70 weeks): positive
carcinogen call (rat, strain F344/DuCrj, females, in drinking water, site: thymus gland, lesion: lymphoma, dosed 75 weeks, study length 75 weeks): positive
carcinogen call (rat, strain F344/DuCrj, males, in drinking water, site: thymus gland, lesion: lymphoma, dosed 70 weeks, study length 70 weeks): positive
carcinogen call (rat, strain F344/DuCrj, males, in drinking water, site: thymus gland, lesion: lymphoma, dosed 75 weeks, study length 75 weeks): positive

CCCCCN(N=O)C(=N)N[N+](=O)[O-]
carcinogen call (rat, strain Wistar, males, in drinking water, site: stomach, glandular, lesion: one or several types, types not named, dosed 52 weeks, study length 78 weeks): negative (inactive)

CC(O)c1ccccc1 (configuration not stated)
carcinogen call (mouse, strain B6C3F1, females, by gavage, site: any site (literature study), lesion: several types, types named in the paper, dosed 103 weeks, study length 104 weeks): negative (inactive)
TD50 (mouse, strain B6C3F1, males, by gavage, site: any site (literature study), lesion: several types, types named in the paper, dosed 103 weeks, study length 104 weeks): 2230 mg/kg/day (inactive)
TD50 (rat, strain Fischer 344, females, by gavage, site: any site (literature study), lesion: several types, types named in the paper, dosed 103 weeks, study length 104 weeks): 826 mg/kg/day
TD50 (rat, strain Fischer 344, females, by gavage, site: liver, lesion: hepatocellular adenoma + hepatocellular carcinoma + neoplastic nodule, dosed 103 weeks, study length 104 weeks): 8630 mg/kg/day
TD50 (rat, strain Fischer 344, females, by gavage, site: pancreatic islets, lesion: islet-cell adenoma, dosed 103 weeks, study length 104 weeks): 2300 mg/kg/day (inactive)
TD50 (rat, strain Fischer 344, males, by gavage, site: adrenal medulla, lesion: pheochromocytoma + pheochromocytoma, malignant, dosed 103 weeks, study length 104 weeks): 135 mg/kg/day
TD50 (rat, strain Fischer 344, males, by gavage, site: any site (literature study), lesion: several types, types named in the paper, dosed 103 weeks, study length 104 weeks): 88.6 mg/kg/day
TD50 (rat, strain Fischer 344, males, by gavage, site: kidney, lesion: tubular-cell adenoma + tubular-cell adenocarcinoma, dosed 103 weeks, study length 104 weeks): 458 mg/kg/day and 944 mg/kg/day
TD50 (rat, strain Fischer 344, males, by gavage, site: kidney, lesion: tubular-cell adenoma, dosed 103 weeks, study length 104 weeks): 984 mg/kg/day and 564 mg/kg/day
TD50 (rat, strain Fischer 344, males, by gavage, site: liver, lesion: hepatocellular adenoma + hepatocellular carcinoma + neoplastic nodule, dosed 103 weeks, study length 104 weeks): 4800 mg/kg/day
TD50 (rat, strain Fischer 344, males, by gavage, site: lung, lesion: alveolar/bronchiolar adenoma + alveolar/bronchiolar carcinoma, dosed 103 weeks, study length 104 weeks): 1050 mg/kg/day
TD50 (rat, strain Fischer 344, males, by gavage, site: preputial gland, lesion: carcinoma, NOS, dosed 103 weeks, study length 104 weeks): 1270 mg/kg/day
TD50 (rat, strain Fischer 344, males, by gavage, site: testis, lesion: interstitial-cell tumor, dosed 103 weeks, study length 104 weeks): 51.5 mg/kg/day

Nc1ccc(-c2ccc(N)c(O)c2)cc1O
TD50 (mouse, strain ICR/Jcl, males, in feed, site: liver, lesion: hepatoma, dosed 65 weeks, study length 65 weeks): 353 mg/kg/day

N[C@@H](Cc1cnc[nH]1)C(=O)O
carcinogen call (rat, strain F344/DuCrj, females, in feed, site: liver, lesion: hepatocellular adenoma, dosed 104 weeks, study length 107 weeks): negative (inactive)
TD50 (rat, strain F344/DuCrj, males, in feed, site: liver, lesion: hepatocellular adenoma, dosed 104 weeks, study length 107 weeks): 52200 mg/kg/day (inactive)

CC(=O)NNC(C)=O
carcinogen call (mouse, strain Swiss, females, by gavage, site: lung, lesion: several types, types named in the paper, dosed 34 weeks, study length 95 weeks): negative (inactive)
carcinogen call (mouse, strain Swiss, females, by gavage, site: lung, lesion: several types, types named in the paper, dosed 95 weeks, study length 95 weeks): negative (inactive)
TD50 (mouse, strain Swiss, males, by gavage, site: lung, lesion: several types, types named in the paper, dosed 34 weeks, study length 95 weeks): 144 mg/kg/day (inactive)
TD50 (mouse, strain Swiss, males, by gavage, site: lung, lesion: several types, types named in the paper, dosed 95 weeks, study length 95 weeks): 411 mg/kg/day (inactive)

COc1ccc2nc(S(=O)Cc3ncc(C)c(OC)c3C)[nH]c2c1 (configuration not stated)
TD50 (rat, strain Sprague-Dawley, females, by gavage, site: gastric mucosa, lesion: carcinoid tumor, malignant, dosed 104 weeks, study length 104 weeks): 63 mg/kg/day
TD50 (rat, strain Sprague-Dawley, males, by gavage, site: gastric mucosa, lesion: carcinoid tumor, malignant, dosed 104 weeks, study length 104 weeks): 1120 mg/kg/day

Cc1ccc(Cc2cnc(NCCSCc3ccc(CN(C)C)o3)[nH]c2=O)cn1
carcinogen call (mouse, strain SK&F Swiss, females, by gavage, site: gastric mucosa, lesion: carcinoid tumor, malignant, dosed 91 weeks, study length 91 weeks): negative (inactive)
carcinogen call (mouse, strain SK&F Swiss, males, by gavage, site: gastric mucosa, lesion: carcinoid tumor, malignant, dosed 91 weeks, study length 91 weeks): negative (inactive)
TD50 (rat, strain SK&F Wistar, females, by gavage, site: gastric mucosa, lesion: carcinoid tumor, malignant, dosed 100 weeks, study length 100 weeks): 2990 mg/kg/day
TD50 (rat, strain SK&F Wistar, males, by gavage, site: gastric mucosa, lesion: carcinoid tumor, malignant, dosed 100 weeks, study length 100 weeks): 3830 mg/kg/day

O=NN1CCC[C@H]1C(=O)O
TD50 (rat, strain MRC, females, in drinking water, site: any site (literature study), lesion: several types, types named in the paper, dosed 75 weeks, study length 104 weeks): 6.69 mg/kg/day (inactive)
carcinogen call (rat, strain MRC, males, in drinking water, site: any site (literature study), lesion: several types, types named in the paper, dosed 75 weeks, study length 104 weeks): negative (inactive)

CC1=C(CC(=O)O)c2cc(F)ccc2/C1=C\c1ccc(S(C)(=O)=O)cc1
carcinogen call (rat, strain Fischer 344, males, in feed, site: colon, lesion: one or several types, types not named, dosed 53 weeks, study length 53 weeks): negative (inactive)

FC(F)Cl
carcinogen call (mouse, strain Swiss, females, inhaled, site: any site (literature study), lesion: malignant tumor, dosed 78 weeks, study length 104 weeks): negative (inactive)
carcinogen call (mouse, strain Swiss, females, inhaled, site: any site (literature study), lesion: several types, types named in the paper, dosed 78 weeks, study length 104 weeks): negative (inactive)
carcinogen call (mouse, strain Swiss, females, inhaled, site: lung, lesion: adenoma, dosed 78 weeks, study length 104 weeks): negative (inactive)
TD50 (mouse, strain Swiss, males, inhaled, site: any site (literature study), lesion: malignant tumor, dosed 78 weeks, study length 104 weeks): 98300 mg/kg/day (inactive)
carcinogen call (mouse, strain Swiss, males, inhaled, site: any site (literature study), lesion: several types, types named in the paper, dosed 78 weeks, study length 104 weeks): negative (inactive)
carcinogen call (mouse, strain Swiss, males, inhaled, site: lung, lesion: adenoma, dosed 78 weeks, study length 104 weeks): negative (inactive)
TD50 (rat, strain Sprague-Dawley, females, inhaled, site: any site (literature study), lesion: malignant tumor, dosed 104 weeks, study length 104 weeks): 20100 mg/kg/day (inactive)
TD50 (rat, strain Sprague-Dawley, females, inhaled, site: any site (literature study), lesion: several types, types named in the paper, dosed 104 weeks, study length 104 weeks): 26000 mg/kg/day (inactive)
carcinogen call (rat, strain Sprague-Dawley, females, inhaled, site: liver, lesion: angiosarcoma, dosed 104 weeks, study length 104 weeks): negative (inactive)
carcinogen call (rat, strain Sprague-Dawley, males, inhaled, site: any site (literature study), lesion: malignant tumor, dosed 104 weeks, study length 104 weeks): negative (inactive)
TD50 (rat, strain Sprague-Dawley, males, inhaled, site: any site (literature study), lesion: several types, types named in the paper, dosed 104 weeks, study length 104 weeks): 6540 mg/kg/day (inactive)
carcinogen call (rat, strain Sprague-Dawley, males, inhaled, site: liver, lesion: angiosarcoma, dosed 104 weeks, study length 104 weeks): negative (inactive)
